# Laboratory results as given in US9993465B2, “2,5-disubstituted-pyridyl nicotinic ligands, and methods of use thereof” (Georgetown University, priority 2011, dated 2018).
# Read-outs that look alike come from different tables or passages of the source.
# What was measured:
# [1] = target: native nAChRs of rat forebrain (Rattus norvegicus, UniProt P09483+P12390); format: binding; details: Table 1
# Protocol: (§1) To determine selectivities of these compounds in binding assays among the three predominant nAChR subtypes, α3β4, α4β2 and α7, the ratios of Ki values (α3β4/α4β2 and α7/α4β2) were determined.
# Briefly, cultured cells at >80% confluence were removed from their flasks (80 cm^2) with a disposable cell scraper and placed in 10 mL of 50 mM Tris.HCl buffer (pH 7.4, 4° C.). The cell suspension was centrifuged at 10,000×g for 5 min and the pellet was collected. The cell pellet was then homogenized in 10 mL buffer with a polytron homogenizer and centrifuged at 36,000 g for 10 min at 4° C. The membrane pellet was resuspended in fresh buffer, and aliquots of the membrane preparation were used for binding assays. […] Bound and free ligands were separated by vacuum filtration through Whatman GF/C filters treated with 0.5% polyethylenimine. The filter-retained radioactivity was measured by liquid scintillation counting. Specific binding was defined as the difference between total binding and nonspecific binding. Data from competition binding assays were analyzed using Prism 5 (GraphPad Software, San Diego, Calif.).
# We measured the in vitro binding affinities of the ligands for defined receptor subtypes (α2β2, α2β4, α3β2, α3β4, α4β2, α4Γ4, α6β2, α6β4, and α7) expressed in stably transfected cell lines. […] Rat forebrain homogenates were included to allow comparison between the heterologous and native α4β2 and α7 nAChRs.
# [2] = system: ferrets; assay: Emesis studies in ferrets; format: in vivo, ferret (Mustela putorius furo)
# Protocol: Effects of (S)-15 in causing nausea and emesis were assessed in a ferret model. For comparison, varenicline was also tested. […] In general, all animals remained alert and active with periods of inactivity that mirrored their baseline behavior within the 1 hr observation period.
# In one animal, this behavior was accompanied by oral stereotypy (licking), whereas in two animals it was interspersed by episodes of backward walking. On the average, these behaviors manifested around ˜2.20 min. […] Occasionally, when animals tried to ambulate they would immediately cease their movement after each attempt. This would, be followed by a momentary increase in breathing, giving the impression that the animal was in distress.
# Studies were undertaken in male ferrets (Mustela putorius furo) weighing 0.9-1.5 kg (Marshall Farms, N.Y.). They were housed in controlled conditions of room temperature (22° C.) and light (12:12 h light-dark cycle) with free access to food and water. Prior to each experiment, food was withheld overnight, whereas water was provided ad libitum.
# Emetic testing consisted of placing animals individually in a polycarbonate enclosure. Following a 30 min acclimation period, each animal randomly received a subcutaneus injection of varencline or compound (S)-15 (YL-1-127) in the subscapular region. A 60 min observation and video recording followed the drug administration. […] All drugs were dissolved in sterile saline.
# Video analysis of the incidence of emesis, stereotypical behaviors (such as licking, mouth-clawing, backward walking, gagging, and burying of the head in cage) and GI side effects (diarrhea) was done off-line. Stereotypical behaviors are thought to be reflective of a subjective sensation of nausea. The emetic index of a drug was calculated as the percentage of animals displaying emesis (one or more times in 60 min) divided by the total number of animals tested. […]
# The Nausea Index for the stereotypical behaviors was derived from the mean±SEM number of nausea behaviors observed among all animals in a given treatment group. Significance was determined at p<0.05.
# [3] = target: human α4β2 nAChRs (Homo sapiens (Human), UniProt P17787+P43681); assay: 86Rb+ efflux assay, agonist activity, α4β2; format: cell-based
# Protocol: (§2) Their agonist activities were assessed by measuring stimulated ^86Rb^+ efflux from stably transfected cells, either expressing human α4β2 nAChRs or rat α3β4 receptors.
# (§3) The cell lines expressing defined rat nAChR subtypes were established previously by stably transfecting HEK 293 cells with rat nAChR subunit genes. The cell line expressing human α4β2 nAChRs, YXα4β2H1, was established recently. These cell lines were maintained in minimum essential medium (MEM) supplemented with 10% fetal bovine serum, 100 units/mL penicillin G, […] and selective antibiotics at 37° C. with 5% CO2 in a humidified incubator. Fetal bovine serum was provided by Gemini Bio-Products (Woodland, Calif.). Tissue culture medium and antibiotics were obtained from Invitrogen Corporation (Carlsbad, Calif.), unless otherwise stated.
# Functional properties of compounds at nAChRs expressed in the transfected cells were measured using ^86Rb^+ efflux assays as described previously. In brief, cells expressing human α4β2 or rat α3β4 nAChRs were plated into 24-well plates coated with poly-D-lysine. The plated cells were grown at 37° C. for 18 to 24 hour to reach 85-95% confluence. The cells were then incubated in growth medium (0.5 mL/well) containing ^86Rb^+ (2 μCi/mL) for 4 hour at 37° C. The loading mixture was then aspirated, and the cells were washed four times with 1 mL buffer (15 mM HEPES, 140 mM NaCl, 2 mM KCl, 1 mM MgSO4, 1.8 mM CaCl2, 11 mM Glucose, pH 7.4). One mL of buffer with or without compounds to be tested was then added to each well. After incubation for 2 min, the assay buffer was collected for measurements of ^86Rb^+ released from the cells. Cells were then lysed by adding 1 ml of 100 mM […] to each well, and the lysate was collected for determination of the amount of ^86Rb^+ that was in the cells at the end of the efflux assay. Radioactivity of assay samples and lysates was measured by liquid scintillation counting. Total loading (cpm) was calculated as the sum of the assay sample and the lysate of each well. The amount of ^86Rb^+ efflux was expressed as a percentage of ^86Rb^+ loaded. […] For obtaining EC50 and Emax values, stimulation curves were constructed in which 8 different concentrations of a ligand were included in the assay. […] EC50, Emax and IC50(10′) values were determined by nonlinear least-squares regression analyses (GraphPad, San Diego, Calif.).
# The functional properties of the ligands were determined by ^86Rb^+ efflux assays in cells expressing α3β4 and α4β2 nAChR subtypes. The functional activity of each ligand was measured for its agonism, antagonism and desensitization ability. Agonist activity for each of the ligands was tested at eight different concentrations. […]
# [4] = target: rat α4β2 nAChR (Rattus norvegicus (Rat), UniProt P09483+P12390); format: binding; details: versus Sazetidine-A
# Protocol: as §1, §3
# Briefly, cultured cells at >80% confluence were removed from their flasks (80 cm^2) with a disposable cell scraper and placed in 10 mL of 50 mM Tris.HCl buffer (pH 7.4, 4° C.). […] The filter-retained radioactivity was measured by liquid scintillation counting. […] Data from competition binding assays were analyzed using Prism 5 (GraphPad Software, San Diego, Calif.).
# We measured the in vitro binding affinities of the ligands for defined receptor subtypes (α2β2, α2β4, α3β2, α3β4, α4β2, α4Γ4, α6β2, α6β4, and α7) expressed in stably transfected cell lines. […]
# [5] = target: rat α3β4 nAChRs (Rattus norvegicus (Rat), UniProt P04757+P12392); assay: 86Rb+ efflux assay, agonist activity, α3β4; format: cell-based
# Protocol: as §2
# as §3, with “Tissue culture medium and antibiotics were obtained from Invitrogen Corporation (Carlsbad, Calif.), unless otherwise stated.” left out
# Functional properties of compounds at nAChRs expressed in the transfected cells were measured using ^86Rb^+ efflux assays as described previously. […] Radioactivity of assay samples and lysates was measured by liquid scintillation counting. Total loading (cpm) was calculated as the sum of the assay sample and the lysate of each well. The amount of ^86Rb^+ efflux was expressed as a percentage of ^86Rb^+ loaded. […] EC50, Emax and IC50(10′) values were determined by nonlinear least-squares regression analyses (GraphPad, San Diego, Calif.).
# The functional properties of the ligands were determined by ^86Rb^+ efflux assays in cells expressing α3β4 and α4β2 nAChR subtypes. […]
Structure (SMILES),Ki [1],further results
"CCCCC#Cc1cnc(C)c(OC[C@H]2CCN2)c1 [(R)-15, (R)-3-(azetidin-2-ylmethoxy)-5-(hex-1-ynyl)-2-methylpyridine]",4300 nM,
"CCCCC#Cc1cnc(C)c(OC[C@H]2CCCN2)c1 [(R)-16, (R)-5-(hex-1-ynyl)-2-methyl-3-(pyrrolidin-2-ylmethoxy) pyridine]",110000 nM,
"CCCCC#Cc1cnc(C)c(OC[C@@H]2CCN2)c1 [(S)-15, (S)-3-(azetidin-2-ylmethoxy)-5-(hex-1-ynyl)-2-methylpyridine]",52 nM,"emetic episodes or stereotypical behaviors indicative of nausea ([2]; 1-30 mg/kg s.c., 1 hr observation): did not elicit any emetic episodes or stereotypical behaviors that are indicative of nausea"
"CCCCC#Cc1cnc(C)c(OC[C@@H]2CCCN2)c1 [(S)-16, (S)-5-(hex-1-ynyl)-2-methyl-3-(pyrrolidin-2-ylmethoxy)pyridine]",540 nM,agonist activity at α4β2 nAChRs ([3]; result in words): didn't show detectable agonist activity
"Cc1ncc(C#CCCCCO)cc1OC[C@@H]1CCN1 [(S)-17, (S)-6-(5-(azetidin-2-ylmethoxy)-6-methylpyridin-3-yl)hex-5-yn-1-ol]",11 nM,reduction in binding affinity for α4β2 nAChRs [4]: 70 fold
"Cc1ncc(C#CCCCCCl)cc1OC[C@@H]1CCN1 [(S)-21, (S)-3-(azetidin-2-ylmethoxy)-5-(6-chlorohex-1-ynyl)-2-methylpyridine]",32 nM,agonist activity at α4β2 nAChRs ([3]; result in words): didn't show detectable agonist activity
"Cc1ncc(C#CCCCCF)cc1OC[C@@H]1CCN1 [(S)-22, (S)-3-(azetidin-2-ylmethoxy)-5-(6-fluorohex-1-ynyl)-2-methylpyridine]",,agonist activity at α4β2 nAChRs ([3]; result in words): didn't show detectable agonist activity
"Cc1ncc(C#CC2CC2)cc1OC[C@@H]1CCN1 [(S)-27, (S)-3-(azetidin-2-ylmethoxy)-5-(cyclopropylethynyl)-2-methylpyridine]",31 nM,
"CN1CCC[C@H]1c1cccnc1 [(−)-Nicotine, (−)-nicotine, reference compound]",,agonist activity at α4β2 nAChRs [3]: full agonist activities; agonist activity at α3β4 nAChRs [5]: full agonist activities
"OCCCCC#Cc1cncc(OC[C@@H]2CCN2)c1 [Sazetidine-A, reference compound]",0.17 nM,
"c1cnc2cc3c(cc2n1)[C@@H]1CNC[C@H]3C1 [Varenicline, varenicline]",1.1 nM,"emetic episodes ([2]; 0.5 mg/kg s.c.): no emetic episodes were observed; time at which nausea behaviors manifested, on the average ([2]; 0.5 mg/kg s.c.): ~2.20 min"
